Experimental data from patent publication US12594267B2, “Capsid inhibitors for the treatment of HIV” (Gilead Sciences, Inc., priority 2018, dated 2026).
Like-named read-outs stand apart in the source and are kept apart here.

Experiments:
[1] = tested on: INSTI-resistant viruses; test: Cytopathic antiviral assay in MT-2 cells, INSTI-resistant viruses; assay type: cell-based, HIV-1; conditions: for EC50 Fold-Change: Mutant/WT (HXB2D) EC50 ratio, mean ± s.d. of three experiments
Method: The antiviral activity of the compound of Formula (a) was tested against a panel of known HIV-1 mutants resistant to HIV PIs (ATV and DRV), NRTIs (TFV and FTC), NNRTIs (RPV and EFV) or INSTIs (RAL, EVG and DTG) using a cytopathic antiviral assay in MT-2 cells. The compound of Formula (Ia) was fully active against all tested mutants resistant to PIs (Table 11), NRTIs (Table 12), NNRTIs (Table 13) or INSTIs (Table 14).

[2] = tested on: NRTI-resistant viruses; assay type: cell-based, HIV-1; conditions: MT-2 cells; for EC50 Fold-Change: Mutant/WT (LAI) EC50 ratio, mean ± s.d. of three experiments
Method: (§1) The antiviral activity of the compound of Formula (a) was tested against a panel of known HIV-1 mutants resistant to HIV PIs (ATV and DRV), NRTIs (TFV and FTC), NNRTIs (RPV and EFV) or INSTIs (RAL, EVG and DTG) using a cytopathic antiviral assay in MT-2 cells.

[3] = Plasma PK after single oral administration in solution, rhesus monkey; assay type: in vivo
Method: (§2) An oral formulation containing a compound of Formula (Ia) in […], 20% propylene glycol, 45 PEG 300, and 30% 0.01 N HCl was prepared. The formulation was orally administered to male rat, dog, cynomolgus monkey, and rhesus monkey according to the doses shown in Table 8 below.

[4] = Plasma PK after single oral administration in solution, cynomolgus monkey; assay type: in vivo
Method: as §2

[5] = tested on: HIV-2 isolates; test: Antiviral activity against HIV-2 isolates in PHA-stimulated human PBMCs; assay type: cell-based; conditions: Human immunodeficiency virus 2, PBMC, 168 h, 7-day infection, RT activity readout, mean of triplicate
Method: The antiretroviral activity of the compound of Formula (Ia) was tested against a panel of 22 HIV-1 clinical isolates of HIV-1 and two HIV-2 isolates in freshly isolated, PHA-stimulated human peripheral blood mononuclear cells (PBMCs). The HIV-1 isolates included representative strains from subtypes A, B, C, D, E, F, G, N, O, AE, and AG. Following a 7-day infection, virus production was determined by measuring reverse transcriptase activity in cell-free culture supernatants.

[6] = Plasma PK after single oral administration in solution, rat; assay type: in vivo, Sprague-Dawley Rat
Method: as §2

[7] = PK after oral administration of spray-dried dispersion (SDD) tablets in dogs; assay type: in vivo; conditions: beagle dogs, 300 mg fixed dose
Method: A tablet, prepared from a spray-dried dispersion of a sodium salt of the compound of Formula (Ia), was prepared in a composition shown in Table T below (with an outer film coating made of Opadry® II White 85F18422, wherein the outer film coating provides a 3% weight gain based on the uncoated tablet) and was administered orally at 300 mg fixed dose to 6 beagle dogs (Table U) and the pharmacokinetic (PK) profile was determined. […] Plasma concentrations of the compound of Formula (Ia) were maintained above the target trough concentration of 20 nM for at least 14 days (2 weeks).

[8] = tested on: WT LAI; test: microbe, parasite or virus in culture; assay type: cell-based, HIV-1; conditions: Human immunodeficiency virus 1, MT2, read-out: WT LAI EC50
Method: as §1

[9] = male, plasma, single oral 4.0 mg/kg, solution in 5% ethanol/20% propylene glycol/45% PEG 300/30% 0.01 N HCl, mean ± SD, n=3
[10] = male, Sprague-Dawley, plasma, rat, single oral 5.0 mg/kg, solution in 5% ethanol/20% propylene glycol/45% PEG 300/30% 0.01 N HCl, mean ± SD, n=3
[11] = dog, plasma, oral SDD tablet of the sodium salt (Table T composition, Opadry II White film coat), mean ± SD, n=6

For `CC(C)(C#Cc1ccc(-c2ccc(Cl)c3c(NS(C)(=O)=O)nn(CC(F)(F)F)c23)c([C@H](Cc2cc(F)cc(F)c2)NC(=O)Cn2nc(C(F)(F)F)c3c2C(F)(F)[C@@H]2C[C@H]32)n1)S(C)(=O)=O` [Formula (Ia), N—((S)-1-(3-(4-chloro-3-(methylsulfonamido)-1-(2,2,2-trifluoroethyl)-1H-indazol-7-yl)-6-(3-methyl-3-(methylsulfonyl)but-1-yn-1-yl)pyridin-2-yl)-2-(3,5-difluorophenyl)ethyl)-2-((3bS,4aR)-5,5-difluoro-3-(trifluoromethyl)-3b,4,4a,5-tetrahydro-1H-cyclopropa[3,4]cyclopenta[1,2-c]pyrazol-1-yl)acetamide], which “EC50 Fold-Change” value ([1]; N155H/Q148R) is on record?
Its value is 1.3 ± 0.7.

And the “EC50 Fold-Change” value ([1]; R263K/M50I)?
Its value is 0.9 ± 0.5.

And the “EC50 Fold-Change” value ([1]; Y143R)?
The value was 0.5 ± 0.1.

And the “activity against all tested mutants, in words” value ([1]; mutants resistant to INSTIs)?
The value was “fully active”.

And the “EC50 Fold-Change” value ([2]; 6TAMs)?
Its value is 0.4 ± 0.2.

And the “EC50 Fold-Change” value ([2]; K65R)?
The value was 0.7 ± 0.2.

What about the “EC50 Fold-Change” value ([2]; M184V) of the same compound?
Its value is 0.5 ± 0.3.

What about the “activity against all tested mutants, in words” value ([2]; mutants resistant to NRTIs) of the same compound?
Its value is “fully active”.

And the bioavailability ([3]; male, plasma, single oral 4.0 mg/kg, same solution, calculated based on AUC0-72h, mean ± SD, n=3, read-out: F (oral bioavailability))?
Its bioavailability is 4.4 ± 1.7%.

And the AUC(0-inf) [3, 9]?
The AUC(0-inf) was 1130 ± 446 µM·h.

And the Cmax [3, 9]?
The Cmax was 29.4 ± 7.5 µM.

What about the Tmax [3, 9] of the same compound?
Its Tmax is 18.7 ± 9.2 h.

What about the AUC(0-t) ([3]; male, plasma, single oral 4.0 mg/kg, solution in 5% ethanol/20% propylene glycol/45% PEG 300/30% 0.01 N HCl, mean ± SD, n=3, read-out: AUC0-72h) of the same compound?
Its AUC(0-t) is 972 ± 367 µM·h.

And the “F % (bioavailability), in words” value ([3]; oral solution)?
The value was “low”.

What about the bioavailability ([4]; male, plasma, single oral 4.0 mg/kg, same solution, calculated based on AUC0-24h, mean ± SD, n=3, read-out: F (oral bioavailability)) of the same compound?
The bioavailability was 2.2 ± 0.6%.

What about the Cmax [4, 9] of the same compound?
The Cmax was 17.7 ± 5.6 µM.

What about the Tmax [4, 9] of the same compound?
Its Tmax is 8.7 ± 3.1 h.

What about the AUC(0-t) ([4]; male, plasma, single oral 4.0 mg/kg, solution in 5% ethanol/20% propylene glycol/45% PEG 300/30% 0.01 N HCl, mean ± SD, n=3, read-out: AUC0-24h) of the same compound?
Its AUC(0-t) is 298 ± 85 µM·h.

And the “F % (bioavailability), in words” value ([4]; oral solution)?
Its value is “low”.

What about the EC50 ([5]; HIV-2 isolate CBL-20) of the same compound?
The EC50 was 0.57 nM.

And the EC50 ([5]; HIV-2 isolate CDC310319)?
The EC50 was 1.02 nM.

What about the bioavailability ([6]; male, Sprague-Dawley, plasma, rat, single oral 5.0 mg/kg, same solution, calculated based on AUC0-72h, mean ± SD, n=3, read-out: F (oral bioavailability)) of the same compound?
The bioavailability was 21.7 ± 8.9%.

And the AUC(0-inf) [6, 10]?
The AUC(0-inf) was 25200 ± 10200 µM·h.

What about the Cmax [6, 10] of the same compound?
Its Cmax is 336 ± 116 µM.

What about the Tmax [6, 10] of the same compound?
The Tmax was 10 ± 3.5 h.

And the AUC(0-t) ([6]; male, Sprague-Dawley, plasma, rat, single oral 5.0 mg/kg, solution in 5% ethanol/20% propylene glycol/45% PEG 300/30% 0.01 N HCl, mean ± SD, n=3, read-out: AUC0-72h)?
The AUC(0-t) was 13500 ± 3930 µM·h.

What about the “F % (bioavailability), in words” value ([6]; rats, oral solution) of the same compound?
Its value is “moderate”.

What about the “Time plasma concentrations maintained above the target trough concentration of 20 nM” value ([7]; oral SDD tablet of the sodium salt) of the same compound?
Its value is “at least 14 days”.

And the AUC(0-inf) [7, 11]?
The AUC(0-inf) was 18.5 ± 11.1 µM·h.

What about the Cmax [7, 11] of the same compound?
Its Cmax is 0.718 ± 0.409 µM.

What about the Tmax [7, 11] of the same compound?
Its Tmax is 5.3 ± 3.3 h.

What about the AUC(0-t) ([7]; dog, plasma, oral SDD tablet of the sodium salt (Table T composition, Opadry II White film coat), mean ± SD, n=6, read-out: AUC0-72h) of the same compound?
Its AUC(0-t) is 15.8 ± 10 µM·h.

What about the concentration at 72 h ([7]; dog, plasma, oral SDD tablet of the sodium salt (Table T composition, Opadry II White film coat), mean ± SD, n=6, read-out: C72h) of the same compound?
The concentration at 72 h was 0.0614 ± 0.03 µM.

And the EC50 [8]?
Its EC50 is 0.14 ± 0.03 nM.
